Experimental findings from paper PMC7287874 (2020) are described below.

The subject of assay [1] is GR wild type (xpt-pbuX guanine riboswitch aptamer) (RNA, riboswitch) GGACAUAUAAUCGCGUGGAUAUGGCACGCAAGUUUCUACCGGGCACCGUAAAUGUCCGACUAUGUCCA
The assay can be described thus: ITC. As to conditions: 100 mM KCl, 20 mM MgCl2, 50 mM K-HEPES, pH 7.5, 25 °C; for KD: single-site fit; for binding: no binding, highest concentration for this compound not stated.

In assay [2] the test system is GR(A19C-U77G) (RNA, riboswitch) GGACCUAUAAUCGCGUGGAUAUGGCACGCAAGUUUCUACCGGGCACCGUAAAUGUCCGACUAGGUCCA
The assay can be described thus: ITC. Conditions: 100 mM KCl, 20 mM MgCl2, 50 mM K-HEPES; pH 7.5, 25 °C, single-site fit.

In assay [3] the test system is GR RNA, crystallized (RNA, riboswitch) GGACAUAUAAUCGCGUGGAUAUGGCACGCAAGUUUCUACCGGGCACCGUAAAUGUCCGACUAUGUCC
The assay can be described thus: X-ray crystallography. Conditions: cobalt hexammine 30–50 mM, ammonium acetate 600–650 mM, 10 mM K-HEPES pH 7.5, PEG 3000, 24 °C.

Assay [4] relates to GR(C74U) (RNA, riboswitch) GGACAUAUAAUCGCGUGGAUAUGGCACGCAAGUUUCUACCGGGCACCGUAAAUGUCCGAUUAUGUCCA
The assay can be described thus: ITC. Conditions: 100 mM KCl, 20 mM MgCl2, 50 mM K-HEPES; pH 7.5, 25 °C, single-site fit.

Assay [5] has as its system GR(C74G) (RNA, riboswitch) GGACAUAUAAUCGCGUGGAUAUGGCACGCAAGUUUCUACCGGGCACCGUAAAUGUCCGAGUAUGUCCA
The assay can be described thus: ITC. Conditions: 100 mM KCl, 20 mM MgCl2, 50 mM K-HEPES; pH 7.5, 25 °C, single-site fit.

Assay [6] has as its system GR(C74A) (RNA, riboswitch) GGACAUAUAAUCGCGUGGAUAUGGCACGCAAGUUUCUACCGGGCACCGUAAAUGUCCGAAUAUGUCCA
The assay can be described thus: ITC. As to conditions: 100 mM KCl, 20 mM MgCl2, 50 mM K-HEPES; pH 7.5, 25 °C, single-site fit.

In assay [7] the test system is GR A19G U77C (RNA, riboswitch) GGACGUAUAAUCGCGUGGAUAUGGCACGCAAGUUUCUACCGGGCACCGUAAAUGUCCGACUACGUCCA
The assay can be described thus: ITC. As to conditions: 100 mM KCl, 20 mM MgCl2, 50 mM K-HEPES; pH 7.5, 25 °C, single-site fit.

Assay [8] has as its system GR A19G U77 (RNA, riboswitch) GGACGUAUAAUCGCGUGGAUAUGGCACGCAAGUUUCUACCGGGCACCGUAAAUGUCCGACUAUGUCCA
The assay can be described thus: ITC. As to conditions: 100 mM KCl, 20 mM MgCl2, 50 mM K-HEPES; pH 7.5, 25 °C, single-site fit.

In assay [9] the test system is GR A19U U77A (RNA, riboswitch) GGACUUAUAAUCGCGUGGAUAUGGCACGCAAGUUUCUACCGGGCACCGUAAAUGUCCGACUAAGUCCA
The assay can be described thus: ITC. Conditions: 100 mM KCl, 20 mM MgCl2, 50 mM K-HEPES; pH 7.5, 25 °C, single-site fit.

Assay [10] has as its system GR A19C C74U U77G (RNA, riboswitch) GGACCUAUAAUCGCGUGGAUAUGGCACGCAAGUUUCUACCGGGCACCGUAAAUGUCCGAUUAGGUCCA
The assay can be described thus: ITC. Conditions: 100 mM KCl, 20 mM MgCl2, 50 mM K-HEPES; pH 7.5, 25 °C, single-site fit.

For assay [11], the system named is GR A19G C74U U77C (RNA, riboswitch) GGACGUAUAAUCGCGUGGAUAUGGCACGCAAGUUUCUACCGGGCACCGUAAAUGUCCGAUUACGUCCA
The assay can be described thus: ITC. As to conditions: 100 mM KCl, 20 mM MgCl2, 50 mM K-HEPES; pH 7.5, 25 °C, single-site fit.

For assay [12], the system named is GR A19U C74U U77A (RNA, riboswitch) GGACUUAUAAUCGCGUGGAUAUGGCACGCAAGUUUCUACCGGGCACCGUAAAUGUCCGAUUAAGUCCA
The assay can be described thus: ITC. Conditions: 100 mM KCl, 20 mM MgCl2, 50 mM K-HEPES; pH 7.5, 25 °C, single-site fit.

For the compound `O=c1[nH]cnc2nc[nH]c12`, in assay [1], the KD – broadly, the concentration at which binding is half-saturated – is listed as 240 ± 30 nM. This counts as sub-micromolar. For `Nc1nc(OCc2ccccc2)c2[nH]cnc2n1`, the binding entry in [1] was “no”. For the compound `Nc1nc(Cl)c2[nH]cnc2n1`, in assay [1], the KD worked out at 340 ± 30 nM. In other words, the sub-micromolar range. With `CC(C)C(=O)Nc1nc2[nH]cnc2c(=O)[nH]1`, the figures for the KD in assay [1] and in [2] were 7.4 ± 0.5 nM and 4.5 ± 2.0 nM, respectively. As to `O=c1c2[nH]cnc2nc2ncccn12`, the binding entry in assay [1] is recorded as “no”. In assay [1], `CC(=O)Nc1nc2[nH]cnc2c(=O)[nH]1` displayed a KD of 300 ± 10 nM. Also, the binding entry in assay [3] was “yes”.

`Nc1nc2[nH]c(N)nc2c(=O)[nH]1` showed a KD in assay [1] of 36 ± 13 nM. For the same compound, the binding result in assay [3] was “yes”. Consider `CC(C)(C)C(=O)Nc1nc2[nH]cnc2c(=O)[nH]1`, for which the KD in [1] was 230,000 ± 10,000 nM.

As for `Nc1nc2c(=O)[nH]cnc2[nH]1`, the KD in assay [1] is listed as 14,000 ± 1000 nM. As for `Nc1nc(OCC2CCCCC2)c2[nH]cnc2n1`, the dissociation constant (KD) in assay [1] is given as 17,000 ± 1000 nM. Also, in [3], the binding result is reported as “yes”. For `Nc1nc2[nH]cnc2c(=O)[nH]1`, the values for the KD in assay [1] and in assay [2] were 2.1 ± 0.7 nM and 0.85 ± 0.31 nM, respectively. Besides, in assay [3] (1.6 Å), the binding entry is on record as “yes”. With `COc1nc(N)nc2[nH]cnc12`, the KD in assay [1] is reported as 6400 ± 400 nM. That is a single-digit micromolar value. Still for that read-out and setting: then `Nc1nc(NC2CC2)c2nc[nH]c2n1`, with 25,000 ± 3000 nM. With `O=C(COc1ccccc1)Nc1nc2[nH]cnc2c(=O)[nH]1`, the KD is 8.8 ± 0.5 nM in assay [1]; 7500 ± 800 nM in assay [4]; 42,000 ± 2000 nM in assay [5]; 85,000 ± 25,000 nM in [6]; 2.2 ± 0.6 nM in [2]; 4.9 ± 1.2 nM in [7]. The KD in [8] is given as 5.4 ± 1.2 nM; in [9] it was 7.8 ± 1.6 nM; in assay [10] it was 4100 ± 400 nM; in assay [11], 44,000 ± 4000 nM; in [12], 66,000 ± 5000 nM. Take `CNc1nc2[nH]cnc2c(=O)[nH]1`: the KD in assay [1] was 17,000 ± 1000 nM. The same measure, in the same setting: under `CC1CC(O)n2c(nc3[nH]cnc3c2=O)N1` (stereo not shown) stands 79,000 ± 1000 nM.

On to `Nc1nc2[nH]c(O)nc2c(=O)[nH]1`, for which the KD in [1] was 10 ± 4 nM. In the case of `NS(=O)(=O)c1ccc(Nc2nc(OCC3CCCCC3)c3nc[nH]c3n2)cc1`, in assay [1], the KD stood at 5600 ± 600 nM.
